Results reported in ChEMBL document CHEMBL3232929, “Thermodynamic and structural characterization of halogen bonding in protein-ligand interactions: a case study of PDE5 and its inhibitors” (J Med Chem, 2014).

Target: cGMP-specific 3',5'-cyclic phosphodiesterase (Homo sapiens, UniProt O76074)
Assay: Binding affinity to recombinant PDE5 catalytic domain (unknown origin) by ITC analysis

SMILES | Kd [nM]
CCCOc1ccc(S(=O)(=O)N2CCN(C)CC2)cc1-c1nc(CC)cc(=O)[nH]1 | 1450
CCCOc1ccc(S(=O)(=O)N2CCN(C)CC2)cc1-c1nc(CC)c(F)c(=O)[nH]1 | 1730
CCCOc1ccc(S(=O)(=O)N2CCN(C)CC2)cc1-c1nc(CC)c(Cl)c(=O)[nH]1 | 767
CCCOc1ccc(S(=O)(=O)N2CCN(C)CC2)cc1-c1nc(CC)c(Br)c(=O)[nH]1 | 416
CCCOc1ccc(S(=O)(=O)N2CCN(C)CC2)cc1-c1nc(CC)c(I)c(=O)[nH]1 | 152
